Assay [1] deals with venetoclax-resistant MOLM-13 cell lines. As to the kind of experiment: Drug treatment IC50 / cell viability (CellTiter Glo) and synergy, venetoclax-resistant MOLM-13 cell lines. The class given is cell-based. To be noted: Homo sapiens, cell lines developed by continuous exposure to venetoclax for 3 weeks. The method, then: (§1) Cell lines were plated in 96 well plates and exposed to the indicated compounds at various concentration ranges with a minimum of three technical replicates per concentration per cell line. Cell viability was measured with the CellTiter Glo reagent (Promega) as per manufacturer's instructions. Absolute viability values were converted to percentage viability versus DMSO control treatment, and then non-linear fit of log (inhibitor) versus response (three parameters) was performed in GraphPad Prism v7.0 to obtain an IC50 values. Two-dimensional heatmaps of Synergy Scores from Bliss synergy models were generated based on Demidenko et al., 2019^83.
The efficacy of SM09419 across a spectrum of human AML cell lines was tested. […] Three independent venetoclax-resistant MOLM-13 cell lines following continuous exposure to venetoclax for 3 weeks were developed. […] These findings were further extended to patient-derived xenograft (PDX) models of AML from patients with de novo resistance to venetoclax combination regimens (5-azacytidine or low-dose cytarabine) (FIGS. 6C-6D). Following xenotransplantation from two individual venetoclax-resistant patients into NSGS mice, disease engraftment with >10% human hCD45^+ hCD34^+ hCD38^+ cells was detected and mice were exposed to SM09419 (25 mg/kg) or vehicle administered orally and daily for 3 weeks.
Background: ATP-based viability assays read luminescence as a measure of living cells.

A further assay relates to MOLM-13 parental cells. As to the kind of experiment: Drug treatment IC50 / cell viability (CellTiter Glo) and synergy, MOLM-13 parental cells. The format is cell-based. To be noted: Homo sapiens. The method, then:
as §1

The term IC50 denotes the point on the concentration scale where inhibition reaches its midpoint.

As to `CC1(C)CCC(CN2CCN(c3ccc(C(=O)NS(=O)(=O)c4ccc(NCC5CCOCC5)c([N+](=O)[O-])c4)c(Oc4cnc5[nH]ccc5c4)c3)CC2)=C(c2ccc(Cl)cc2)C1` [venetoclax], the IC50 in assay [1] is above 99 nM; in the assay with MOLM-13 parental cells, around 15 nM.

The values above are taken from patent US12661352B2, “Combination therapy with CLK/DYRK inhibitors and BCL2 inhibitors to treat leukemia” (Memorial Sloan-Kettering Cancer Center, priority 2023, dated 2026).
